Results published in ChEMBL document CHEMBL1147026, “Synthesis of pseudopeptides based L-tryptophan as a potential antimicrobial agent” (Bioorg Med Chem Lett, 2007).
≈ marks a conversion by molar mass, not a printed value. Calls of active or inactive are those of the source. No cut-off for these calls is given here.

Experiments:
[1] = tested on: Aspergillus sp.; assay: Antifungal activity against Aspergillus sp. after 48 to 72 hrs by broth microdilution method; type: functional; settings: Aspergillus sp.
[2] = tested on: Candida albicans; assay: Antifungal activity against Candida albicans CMAH 0507 after 48 to 72 hrs by broth microdilution method; type: functional
[3] = tested on: Escherichia coli; assay: Antimicrobial activity against Escherichia coli ATCC 25922 upto 128 ug/mL after 24 hrs by two fold dilution method; type: functional, organism-based
[4] = tested on: Klebsiella aerogenes; assay: Antibacterial activity against Enterobacter aerogenes CMCC(B) 45103 upto 128 ug/mL after 24 hrs by two fold dilution method; type: functional, organism-based
[5] = tested on: Saccharomyces cerevisiae; assay: Antimicrobial activity against Saccharomyces cerevisiae upto 128 ug/mL after 48 to 72 hrs by broth microdilution method; type: functional, organism-based
[6] = tested on: Candida albicans; assay: Antifungal activity against Candida albicans CMAH 0572 upto 128 ug/mL after 48 to 72 hrs by broth microdilution method; type: functional, organism-based
[7] = tested on: Proteus vulgaris; assay: Antimicrobial activity against Proteus vulgaris CMCC(B) 49001 upto 128 ug/mL after 24 hrs by two fold dilution method; type: functional, organism-based
[8] = tested on: Micrococcus luteus; assay: Antimicrobial activity against Micrococcus luteus CMCC(B) 28001 upto 128 ug/mL after 24 hrs by two fold dilution method; type: functional, organism-based
[9] = tested on: Candida albicans; assay: Antifungal activity against Candida albicans CMAH 0503 after 48 to 72 hrs by broth microdilution method; type: functional
[10] = tested on: Candida albicans; assay: Antifungal activity against Candida albicans CMAH 0527 after 48 to 72 hrs by broth microdilution method; type: functional
[11] = tested on: Bacillus subtilis; assay: Antimicrobial activity against Bacillus subtilis after 24 hrs by two fold dilution method; type: functional
[12] = tested on: Cryptococcus neoformans; assay: Antifungal activity against Cryptococcus neoformans ATCC 90112 upto 128 ug/mL after 48 to 72 hrs by broth microdilution method; type: functional, organism-based
[13] = tested on: Candida albicans; assay: Antifungal activity against fluconazole-resistant Candida albicans CMAM 0597 upto 128 ug/mL after 48 to 72 hrs by broth microdilution method; type: functional, organism-based
[14] = tested on: Candida albicans; assay: Antifungal activity against Candida albicans CMAM 0592 upto 128 ug/mL after 48 to 72 hrs by broth microdilution method; type: functional, organism-based
[15] = tested on: Staphylococcus aureus; assay: Antibacterial activity against methicillin-susceptible Staphylococcus aureus ATCC 25923 after 24 hrs by two fold dilution method; type: functional; settings: ATCC 25923, 24 h
[16] = tested on: Staphylococcus aureus; assay: Antibacterial activity against methicillin-resistant Staphylococcus aureus CMAH 0430 upto 128 ug/mL after 24 hrs by two fold dilution method; type: functional, organism-based
[17] = tested on: Candida albicans; assay: Antifungal activity against Candida albicans CMAM 0594 upto 128 ug/mL after 48 to 72 hrs by broth microdilution method; type: functional, organism-based
[18] = tested on: Rhodotorula glutinis; assay: Antimicrobial activity against Rhodotorula glutinis SYM 2209 after 48 to 72 hrs by broth microdilution method; type: functional
[19] = tested on: Candida albicans; assay: Antifungal activity against Candida albicans CMAM 0577 upto 128 ug/mL after 48 to 72 hrs by broth microdilution method; type: functional, organism-based
[20] = tested on: Candida albicans; assay: Antifungal activity against Candida albicans CMAH 0511 after 48 to 72 hrs by broth microdilution method; type: functional
[21] = tested on: Candida albicans; assay: Antifungal activity against fluconazole-resistant Candida albicans CMAH 0520 after 48 to 72 hrs by broth microdilution method; type: functional
[22] = tested on: Candida albicans; assay: Antifungal activity against Candida albicans CMAH 0501 after 48 to 72 hrs by broth microdilution method; type: functional
[23] = tested on: Staphylococcus aureus; assay: Antibacterial activity against methicillin-resistant Staphylococcus aureus CMAH 0515 upto 128 ug/mL after 24 hrs by two fold dilution method; type: functional, organism-based
[24] = tested on: Pseudomonas aeruginosa; assay: Antimicrobial activity against Pseudomonas aeruginosa ATCC 27853 upto 128 ug/mL after 24 hrs by two fold dilution method; type: functional, organism-based
[25] = tested on: Staphylococcus aureus; assay: Antibacterial activity against methicillin-resistant Staphylococcus aureus CMAH 0504 upto 128 ug/mL by two fold dilution method; type: functional, organism-based
[26] = tested on: Candida albicans; assay: Antifungal activity against Candida albicans ATCC 10231 after 48 to 72 hrs by broth microdilution method; type: functional

COC(=O)[C@H](Cc1c[nH]c2ccccc12)NC(=O)c1cccc(C(=O)N[C@@H](Cc2c[nH]c3ccccc23)C(=O)OC)n1
MIC50 [1]: > 128 µg/mL | MIC90 [1]: > 128 µg/mL | MIC [2]: 64 µg/mL (≈ 113 µM) | Activity [3]: inactive | Activity [4]: inactive | Activity [5]: inactive | Activity [6]: inactive | Activity [7]: inactive | Activity [8]: inactive | MFC [9]: 128 µg/mL (≈ 226 µM) | MIC [9]: 32 µg/mL (≈ 56.4 µM) | MBC [10]: 128 µg/mL (≈ 226 µM) | MIC [10]: 32 µg/mL (≈ 56.4 µM) | MBC [11]: > 128 µg/mL | MIC [11]: 32 µg/mL (≈ 56.4 µM) | Activity [12]: inactive | Activity [13]: inactive | Activity [14]: inactive | MIC [15]: 64 µg/mL (≈ 113 µM) | Activity [16]: inactive | Activity [17]: inactive | MFC [18]: 128 µg/mL (≈ 226 µM) | MIC [18]: 32 µg/mL (≈ 56.4 µM) | Activity [19]: inactive | MBC [20]: 128 µg/mL (≈ 226 µM) | MIC [20]: 32 µg/mL (≈ 56.4 µM) | MIC [21]: 64 µg/mL (≈ 113 µM) | MFC [22]: 128 µg/mL (≈ 226 µM) | MIC [22]: 32 µg/mL (≈ 56.4 µM) | Activity [23]: inactive | Activity [24]: inactive | Activity [25]: inactive | MFC [26]: 128 µg/mL (≈ 226 µM) | MIC [26]: 32 µg/mL (≈ 56.4 µM)
